# Assay results published in ChEMBL document CHEMBL3885881, “DrugMatrix”.
# Species: Rattus norvegicus
# Experiment: DrugMatrix - Regimen: Daily Repeat
# Type: toxicity, organism-based, Sprague-Dawley
# Design: regimen Daily Repeat, gender Male, age 6-8 weeks
# Conditions: in vivo, po, 1500 mg/kg, route oral GAVAGE, dose level High, vehicle .5 % CMC; for ABSOLUTE BASOPHIL / ABSOLUTE EOSINOPHIL / ABSOLUTE LYMPHOCYTE / ABSOLUTE MONOCYTE / ABSOLUTE SEGMENTED NEUTROPHIL / BASOPHIL / EOSINOPHIL / ERYTHROCYTE COUNT / HEMATOCRIT / HEMOGLOBIN / LEUKOCYTE COUNT / LYMPHOCYTE / MEAN CORPUSCULAR HEMOGLOBIN / MEAN CORPUSCULAR HEMOGLOBIN CONCENTRATION / MEAN CORPUSCULAR VOLUME / MONOCYTE / NEUTROPHIL / NUCLEATED RED BLOOD CELLS / PLATELET COUNT: tissue Blood; for ALANINE AMINOTRANSFERASE / ALBUMIN / ALKALINE PHOSPHATASE / ASPARTATE AMINOTRANSFERASE / BLOOD UREA NITROGEN / CARBON DIOXIDE / CHLORIDE / CHOLESTEROL / CREATINE PHOSPHOKINASE / CREATININE / GLUCOSE / LACTATE DEHYDROGENASE / LIPASE / PHOSPHORUS / POTASSIUM / SODIUM / TOTAL BILIRUBIN / TOTAL PROTEIN / URIC ACID: tissue Plasma
smiles,measurement,setting,value
Cc1ccc(S(=O)(=O)NC(=O)NN2CC3CCCC3C2)cc1 (stereo unspecified) [GLICLAZIDE],ABSOLUTE BASOPHIL,"72 h, time 3 day",0 CELLS/uL
same,ABSOLUTE EOSINOPHIL,"72 h, time 3 day",66 CELLS/uL
same,ABSOLUTE LYMPHOCYTE,"72 h, time 3 day",14884.33 CELLS/uL
same,ABSOLUTE MONOCYTE,"72 h, time 3 day",365.67 CELLS/uL
same,ABSOLUTE SEGMENTED NEUTROPHIL,"72 h, time 3 day",2117.33 CELLS/uL
same,BASOPHIL,"72 h, time 3 day",0%
same,EOSINOPHIL,"72 h, time 3 day",0.33%
same,ERYTHROCYTE COUNT,"72 h, time 3 day",6.45 x10E6/uL
same,HEMATOCRIT,"72 h, time 3 day",39.57%
same,HEMOGLOBIN,"72 h, time 3 day",15.77 G/DL
same,LEUKOCYTE COUNT,"72 h, time 3 day",17.43 x10E3/uL
same,LYMPHOCYTE,"72 h, time 3 day",85.33%
same,MEAN CORPUSCULAR HEMOGLOBIN,"72 h, time 3 day",24.4 pg
same,MEAN CORPUSCULAR HEMOGLOBIN CONCENTRATION,"72 h, time 3 day",39.83 G/DL
same,MEAN CORPUSCULAR VOLUME,"72 h, time 3 day",61.27 fL
same,MONOCYTE,"72 h, time 3 day",2%
same,NEUTROPHIL,"72 h, time 3 day",12.33%
same,NUCLEATED RED BLOOD CELLS,"72 h, time 3 day",0 /100WBC
same,PLATELET COUNT,"72 h, time 3 day",1204.33 x10E3/uL
same,ALANINE AMINOTRANSFERASE,"72 h, time 3 day",29 u/L
same,ALBUMIN,"72 h, time 3 day",4.03 G/DL
same,ALKALINE PHOSPHATASE,"72 h, time 3 day",337.33 u/L
same,ASPARTATE AMINOTRANSFERASE,"72 h, time 3 day",85.67 u/L
same,BLOOD UREA NITROGEN,"72 h, time 3 day",17.33 mg/dL
same,CARBON DIOXIDE,"72 h, time 3 day",26.33 mmol/L
same,CHLORIDE,"72 h, time 3 day",100.67 MEQ/L
same,CHOLESTEROL,"72 h, time 3 day",39.33 mg/dL
same,CREATINE PHOSPHOKINASE,"72 h, time 3 day",319 u/L
same,CREATININE,"72 h, time 3 day",0.14 mg/dL
same,GLUCOSE,"72 h, time 3 day",104.67 mg/dL
same,LACTATE DEHYDROGENASE,"72 h, time 3 day",118.33 u/L
same,LIPASE,"72 h, time 3 day",8.67 u/L
same,PHOSPHORUS,"72 h, time 3 day",11.03 mg/dL
same,POTASSIUM,"72 h, time 3 day",6.27 MEQ/L
same,SODIUM,"72 h, time 3 day",141.67 MEQ/L
same,TOTAL BILIRUBIN,"72 h, time 3 day",0.13 mg/dL
same,TOTAL PROTEIN,"72 h, time 3 day",5.43 G/DL
same,URIC ACID,"72 h, time 3 day",2.57 mg/dL
same,ABSOLUTE BASOPHIL,"120 h, time 5 day",0 CELLS/uL
same,ABSOLUTE EOSINOPHIL,"120 h, time 5 day",0 CELLS/uL
same,ABSOLUTE LYMPHOCYTE,"120 h, time 5 day",11101.33 CELLS/uL
same,ABSOLUTE MONOCYTE,"120 h, time 5 day",80.33 CELLS/uL
same,ABSOLUTE SEGMENTED NEUTROPHIL,"120 h, time 5 day",1151.67 CELLS/uL
same,BASOPHIL,"120 h, time 5 day",0%
same,EOSINOPHIL,"120 h, time 5 day",0%
same,ERYTHROCYTE COUNT,"120 h, time 5 day",6.29 x10E6/uL
same,HEMATOCRIT,"120 h, time 5 day",37%
same,HEMOGLOBIN,"120 h, time 5 day",14.7 G/DL
same,LEUKOCYTE COUNT,"120 h, time 5 day",12.33 x10E3/uL
same,LYMPHOCYTE,"120 h, time 5 day",90%
same,MEAN CORPUSCULAR HEMOGLOBIN,"120 h, time 5 day",23.4 pg
same,MEAN CORPUSCULAR HEMOGLOBIN CONCENTRATION,"120 h, time 5 day",39.8 G/DL
same,MEAN CORPUSCULAR VOLUME,"120 h, time 5 day",58.83 fL
same,MONOCYTE,"120 h, time 5 day",0.67%
same,NEUTROPHIL,"120 h, time 5 day",9.33%
same,NUCLEATED RED BLOOD CELLS,"120 h, time 5 day",0 /100WBC
same,PLATELET COUNT,"120 h, time 5 day",1131.67 x10E3/uL
same,ALANINE AMINOTRANSFERASE,"120 h, time 5 day",46 u/L
same,ALBUMIN,"120 h, time 5 day",4.17 G/DL
same,ALKALINE PHOSPHATASE,"120 h, time 5 day",318 u/L
same,ASPARTATE AMINOTRANSFERASE,"120 h, time 5 day",93 u/L
same,BLOOD UREA NITROGEN,"120 h, time 5 day",21.33 mg/dL
same,CARBON DIOXIDE,"120 h, time 5 day",23.33 mmol/L
same,CHLORIDE,"120 h, time 5 day",103.67 MEQ/L
same,CHOLESTEROL,"120 h, time 5 day",44.67 mg/dL
same,CREATINE PHOSPHOKINASE,"120 h, time 5 day",248.33 u/L
same,CREATININE,"120 h, time 5 day",0.18 mg/dL
same,GLUCOSE,"120 h, time 5 day",101.67 mg/dL
same,LACTATE DEHYDROGENASE,"120 h, time 5 day",168.33 u/L
same,LIPASE,"120 h, time 5 day",10 u/L
same,PHOSPHORUS,"120 h, time 5 day",10.43 mg/dL
same,POTASSIUM,"120 h, time 5 day",6.21 MEQ/L
same,SODIUM,"120 h, time 5 day",144.47 MEQ/L
same,TOTAL BILIRUBIN,"120 h, time 5 day",0.1 mg/dL
same,TOTAL PROTEIN,"120 h, time 5 day",5.7 G/DL
same,URIC ACID,"120 h, time 5 day",1.7 mg/dL
